Measurements taken from ChEMBL document CHEMBL1143664, “New antitumoral acetogenin 'Guanacone type' derivatives: isolation and bioactivity. Molecular dynamics simulation of diacetyl-guanacone” (Bioorg Med Chem, 2007).
pEC50, pIC50: −log10 of the molar value.

Key:
HT-29 = test: Antitumor activity against human HT29 cells after 24 hrs by MTT assay; format: functional; settings: HT-29, 24 h, read-out: ED50 (the source's name)
MCF7 = test: Antitumor activity against human MCF7 cells after 24 hrs by MTT assay; format: functional; settings: MCF7, 24 h, read-out: ED50 (the source's name)
[1] = Antitumor activity against doxorubucin-resistant human MES-SA/Dx5 cells by MTT assay after 24 hrs; format: functional; settings: MES-SA/Dx5, 24 h, read-out: ED50 (the source's name)
[2] = Antitumor activity against human MES-SA cells after 24 hrs by MTT assay; format: functional; settings: read-out: ED50 (the source's name)
A549 = test: Antitumor activity against human A549 cells after 24 hrs by MTT assay; format: functional; settings: A549, 24 h, read-out: ED50 (the source's name)
HepG2 = test: Antitumor activity against human HepG2 cells after 24 hrs by MTT assay; format: functional; settings: HepG2, 24 h, read-out: ED50 (the source's name)
[3] = Inhibition of NADH-ubiquinone oxidoreductase assessed by NADH oxidase activity in beef heart submitochondrial particles; parameters: species or system Bos taurus

SMILES	pEC50 (HT-29)	pEC50 (MCF7)	pEC50 (A549)	pEC50 (HepG2)	pIC50 [3]	pEC50 [1]	pEC50 [2]
COc1cccc2c1C(=O)c1c(O)c3c(c(O)c1C2=O)C[C@@](O)(C(=O)CO)C[C@@H]3O[C@H]1C[C@H](N)[C@H](O)[C@H](C)O1 [DOXORUBICIN]	3.56	5.10	3.82	3.99	–	< 3.30	3.76
CCCCCCCCCC[C@H](O)[C@H]1CC[C@H]([C@H]2CC[C@H]([C@H](O)CCCCC(=O)CCCCCCCC3=C[C@H](C)OC3=O)O2)O1 [GUANACONE]	4.15	4.41	3.83	4.96	8.92	4.28	4.66
C=C(C)[C@H]1Cc2c(ccc3c2O[C@@H]2COc4cc(OC)c(OC)cc4[C@@H]2C3=O)O1 [ROTENONE]	3.69	3.79	4.59	4.82	8.29	3.67	3.83

Second part, led by results:

pEC50 (HT-29)	pEC50 (MCF7)	pEC50 (A549)	pEC50 (HepG2)	pIC50 [3]	SMILES	pEC50 [1]	pEC50 [2]
3.81	4.30	3.72	4.74	8.47	CCCCCCCCCC[C@H](OC(C)=O)[C@H]1CC[C@H]([C@H]2CC[C@H]([C@H](O)CCCCC(=O)CCCCCCCC3=C[C@H](C)OC3=O)O2)O1	4.08	4.37
3.77	4.18	4.00	4.29	8.55	CCCCCCCCCC[C@H](O)[C@H]1CC[C@H]([C@H]2CC[C@H]([C@@H](CCCCC(=O)CCCCCCCC3=C[C@H](C)OC3=O)OC(C)=O)O2)O1	4.01	4.12
3.71	4.54	4.22	5.05	9.40	CCCCCCCCCC[C@H](OC(C)=O)[C@H]1CC[C@H]([C@H]2CC[C@H]([C@@H](CCCCC(=O)CCCCCCCC3=C[C@H](C)OC3=O)OC(C)=O)O2)O1	4.25	4.55
